Results reported in publication PMC9821324, “Pinostrobin Suppresses the α-Melanocyte-Stimulating Hormone-Induced Melanogenic Signaling Pathway” (International Journal of Molecular Sciences, 2023).

Biological target: T1, mushroom tyrosinase (Agaricus bisporus, UniProt C7FF04)
T1 construct: gene PPO3
Assay: cell-free mushroom tyrosinase assay with L-tyrosine, absorbance at […] nm, single concentration […]
Assay type: biochemical
Conditions: read-out: % inhibition at 250 nM

T1 sequence (C7FF04 2-392): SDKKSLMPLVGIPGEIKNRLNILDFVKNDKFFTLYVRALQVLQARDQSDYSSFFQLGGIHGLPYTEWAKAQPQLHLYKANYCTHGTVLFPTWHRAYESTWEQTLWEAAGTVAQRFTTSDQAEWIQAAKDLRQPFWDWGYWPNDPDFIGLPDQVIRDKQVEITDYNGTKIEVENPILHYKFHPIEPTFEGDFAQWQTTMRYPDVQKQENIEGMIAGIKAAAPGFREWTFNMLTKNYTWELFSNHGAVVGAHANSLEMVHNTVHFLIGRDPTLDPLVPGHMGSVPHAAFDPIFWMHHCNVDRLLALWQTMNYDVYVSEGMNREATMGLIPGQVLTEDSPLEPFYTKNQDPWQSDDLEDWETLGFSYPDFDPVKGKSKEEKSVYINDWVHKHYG

SMILES: NC(=S)Nc1ccccc1 [PTU, phenylthiourea]
- inhibition at 0.25 µM: 74.7%
